For test [1], the system named is GNS cell lines G144, G166, and G179. The class given is cell-based. The note with it: 10 μM, two days.
In test [2] the test system is fibroblast cells (HS27). In words: Validation with compounds from an independent supplier, fibroblasts. The note with it: 10 μM, 2 days. The class given is cell-based, human. Here is the method: (§1) Here, selected compounds from an independent source were applied (2 μM for Tegaserod, 10 μM for all others) to G179 (left), HS 27 (middle) or fetal NS (right).
(§2) We carried out two fully independent screens using G144, G166, and G179, as well as a human fibroblast cell line (HS27). […] We chose Glioma NS cell lines to validate several of the drugs, from each class, using compounds obtained from an independent supplier (FIG. 18D).
(§3) For the drug screen we used the IncucyteHD system (Essen Instruments, USA), which enables simultaneously monitoring of six 96-well microplates. GNS cell lines were plated at 10-20% confluence on 96 well plates (Iwaki) coated with laminin (10 μg/ml for 3 hours). The NCC NIH Chemical Compounds library (http://www.nihclinicalcollection.com/) was added to the plates at a final concentration of 10 μM per compound per well (DMSO 0.1%). Images were captured before and after the addition of the library every half hour for 2.5 days in an automated manner using the Incucyte HD device (Essen Instruments, USA). Relative increase in cell number values were generated for every well using confluence readings obtained at each time-point relative to the starting confluence. For every cell line (G144, G166, G179, and HS27) two independent screens were run. HS27 is a human foreskin fibroblast line (American Type Culture Collection). […] Every well associated with a reduction in cell number within the 5* percentile in at least 3 independent screens was visually inspected.

In test [3] the test system is fetal NS cells. The experiment in a line: Validation with compounds from an independent supplier, fetal NS cells. As to conditions: 10 μM, 2 days. The class given is cell-based, human. As for the experimental part:
as §1, §2, §3

The test system of test [4] is tumor lines (GNS cells). The experiment in a line: Validation with compounds from an independent supplier, tumor lines. The class given is cell-based, human. The note with it: 10 μM, 2 days. As for the experimental part:
as §1, §2, §3

For test [5], the system named is human fibroblast cell line (HS27). The experiment in a line: Live-cell imaging (IncucyteHD) chemical screen on fibroblast line. The class given is cell-based. As to conditions: 10 μM, two days. Here is the method:
as §2, §3

The test system of test [6] is GNS cells. The experiment in a line: TUNEL and caspase staining of treated cells. As to conditions: treated versus untreated cells. The class given is cell-based, human. From the text: FIG. 18E is a set of photomicrographs of cells either untreated or treated with indatraline and stained for TUNEL and caspase.
Test [7] relates to GNS cells. The experiment in a line: GNS cell expansion culture. The class given is cell-based, human. Here is the method:
GNS cell expansion was carried out as described previously for human foetal NS cells (Sun et al., (2008) Mol Cell Neurosci 38, 245-258). Tissue culture flasks were pre-treated with Laminin, 10 μg/ml in PBS, (Sigma), for at least 3 hrs at 37° C. […] GNS cells were routinely grown to confluence, dissociated using Accutase (Sigma), and then split 1:3 to 1:5. Media was replaced with fresh media every 3-5 days. For all routine analysis we typically worked with cells between passage 10 and 20. For freezing, we re-suspended cell pellets in 0.5 ml of 10% DMSO/Media and placed in a −80° C. freezer. For long-term storage, liquid nitrogen was used. […] Fetal NS cells CB541 and CB660 are described by Sun et al., 2008, supra), while hf240, hf286, and hf289 (used in the microarrays) were isolated using similar techniques.

The subject of test [8] is G179 cells. The experiment in a line: Astrocyte differentiation on BMP-4 exposure, G179. The class given is cell-based, human. As to conditions: BMP-4 10 ng/ml, 7 days. As for the experimental part:
(§4) To determine whether GNS cells could respond to inductive signals and generate astrocytes, we exposed cells to BMP-4 or serum. […] This response is similar to that of human fetal NS cells (Sun et al., (2008) Mol Cell Neurosci 38, 245-258). Similar results were seen using serum treatment. […] Thus, while GNS cells retain a capacity to differentiate, the efficiency and lineage choice vary dramatically between each line.
(§5) All differentiation was carried out on laminin-coated plastic, either in 4-well plates (˜0.5-1×10^5 cells/well) (Nunc), or for time-lapse movies using 24-well Imagelock microplates (Essen Instruments). For oligodendrocytes and neuronal differentiation we used the same basal media but lacking EGF or FGF-2 (i.e., growth factor withdrawal). For astrocyte differentiation, we supplemented basal media with either BMP at 10 ng/ml (R and D systems), or 1% serum (Sigma). In each case, cells were washed twice with PBS or minimal media before adding the final differentiation media. Samples were processed for immunocytochemistry, typically 7-10 days later.
(§6) Cells w ere fixed in 4% PFA for 10 min and then washed with PBS+0.1% TritonX-100 (PBST). Blocking was carried out using 1% goat serum for 30 mins. […] Images were acquired using a Leica DMI400B inverted fluorescence microscope linked to a DFC340FX camera.

Test [9] relates to G166 cells. In words: Astrocyte differentiation on BMP-4 exposure, G166. The class given is cell-based, human. The note with it: BMP-4 treatment. Here is the method: as §4, §5, §6
Test [10] deals with G144 cells. The experiment in a line: Astrocyte differentiation on BMP-4 exposure, G144. The note with it: BMP-4 10 ng/ml, 7 days. The class given is cell-based, human. As for the experimental part:
as §4, §5, §6

Experimental findings from patent publication US20100287638A1, “NEURAL TUMOR STEM CELLS AND METHODS OF USE THEREOF” (The Hospital for Sick Children, priority 2007, published 2010) are described below.

“Also recorded” adds a separate entry of the source. Where two headings read alike, the source gives them in different places.

Take `CN1CCN(c2nc3cc(C(F)(F)F)ccc3n3cccc23)CC1.O=C(O)/C=C\C(=O)O.O=C(O)/C=C\C(=O)O` [CGS 12066B]: the “killing of / effect on all GNS cell lines” value (from here on “killing of / effect”) in [1] was “killed all GNS cell lines”.

In the case of `C[C@@H]1CN(CCCn2c3ccccc3c3ccccc32)C[C@H](C)N1` [Rimcazole], the “killing of / effect” value in test [1] is given as “killed all GNS cell lines”. Also, the “effect on fibroblast cells” value in [2] was “less striking or no effect”. The “cell death in fetal NS cells” value in test [3] is “cell death”. Also, the “cell death in tumor lines” value in test [4] is recorded as “cell death”.

Consider `CN[C@H]1CC[C@@H](c2ccc(Cl)c(Cl)c2)c2ccccc21` [sertraline], for which the “effect on fibroblast cells” value in test [2] was “less striking or no effect”. In test [3], the “cell death in fetal NS cells” value is given as “cell death”. Further, the “cell death in tumor lines” value in test [4] is “cell death”.

On to `Fc1ccc([C@@H]2CCNC[C@H]2COc2ccc3c(c2)OCO3)cc1` [paroxetine], for which, in [5], the effect on fibroblasts entry is reported as “no effect”. Besides, the “killing of / effect” value is “killed all GNS cell lines” in [1] and “affected all GNS cells” in [1] (listed as Paroxetine).

Turning to `c1ccc2c(c1)Nc1ccccc1S2` [10H-phenothiazine], the “killing of / effect” value in test [1] was “killed all GNS cell lines”.

As for `CNC1CC(c2ccc(Cl)c(Cl)c2)c2ccccc21` (stereo not drawn) [indatraline], the effect on fibroblasts result in test [5] is given as “no effect”. In addition, the “killing of / effect” value in [1] is listed as “killed all GNS cell lines”; in test [1] (listed as Indatraline) it was “affected all GNS cells”. For the same molecule, the “effect on fibroblast cells” value in test [2] is on record as “less striking or no effect”. In [6], the “apoptotic cell death (TUNEL and caspase staining)” value is “dying by an apoptotic pathway; also recorded: increase in TUNEL and caspase staining”. The “cell death in fetal NS cells” value in test [3] is “cell death”. Besides, the “cell death in tumor lines” value in test [4] is given as “cell death”.

Regarding `[H]/N=C(/NCCCCC)N/N=C/c1c[nH]c2ccc(OC)cc12` [tegaserod], the “killing of / effect” value in test [1] is on record as “killed all GNS cell lines”.

As for “LIF: the cytokine LIF (leukemia inhibitory factor)”, the “effect on the cells in expansion culture” value in [7] is on record as “no apparent effect”.

On to `CN1CCN(CCCN2c3ccccc3Sc3ccc(C(F)(F)F)cc32)CC1` [Trifluoperazine], for which, in test [1], the “killing of / effect” value was “killed all GNS cell lines”.

B1: BMP-4: inductive signal added to basal media for astrocyte differentiation (R and D systems) (protein, UniProt P12644 293-408, looked up)
Bone morphogenetic protein 4: SPKHHSQRARKKNKNCRRHSLYVDFSDVGWNDWIVAPPGYQAFYCHGDCPFPLADHLNSTNHAIVQTLVNSVNSSIPKACCVPTELSAISMLYLDEYDKVVLKNYQEMVVEGCGCR
For B1, the “differentiation into GFAP+ cells” value in test [8] is listed as “majority of cells express high levels of GFAP; also recorded: efficiently differentiate into GFAP^+ cells”; in test [8] (listed as BMP), “expressed high levels of GFAP”; in test [9] it was “did differentiate”; in test [9] (listed as BMP), “could only be observed at low frequency”; in [10] it was “majority of cells express high levels of GFAP; also recorded: efficiently differentiate into GFAP^+ cells”.
